Results from the supplement of paper PMC11061612.

Tests used:
[1] = test system: HuP-T3 (Pancreatic Carcinoma); assay: combination Emax (second highest fraction inhibited in the dose matrix, 72 h); higher = more inhibition; extreme values may be limits of the assay
Outline: (§1)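 Cell lines grown in DMEM/F12 or RPMI with 10% FBS were plated in 1536-well plates and held 24 hours at 37°C, 5% CO2 before 72 hours of exposure to two-drug dose matrices, with DMSO typically at 0.2%. CellTiter-Glo 2.0 luminescence gave viability, which was converted to inhibition. Vehicle wells were set to 0 and blank wells to 1. Combination Emax is the second-highest inhibition in the matrix, and Bliss excess is the observed combination effect minus the expected EA + EB − EA·EB, where EA and EB are the single-agent effects.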

[2] = test system: OCUM-1 (Gastric Carcinoma); assay: as above
Outline: as §1

GI-1 (Glioblastoma) = assay: as above
Outline: as §1

[3] = test system: NCI-H513 (Other Solid Carcinomas); assay: as above
Outline: as §1

[4] = test system: H-EMC-SS (Chondrosarcoma); assay: as above
Outline: as §1

[5] = test system: NCI-H2347 (Lung Adenocarcinoma); assay: as above
Outline: as §1

[6] = test system: OCUB-M (Breast Carcinoma); assay: as above
Outline: as §1

[7] = test system: ASH-3 (Thyroid Gland Carcinoma); assay: Bliss excess, mean over the matrix (fraction); higher = more synergy
Outline: as §1

[8] = test system: LC4-1 (B-Lymphoblastic Leukemia); assay: as above
Outline: as §1

BT-20 (Breast Carcinoma) = assay: as above
Outline: as §1

NH-12 (Neuroblastoma) = assay: as above
Outline: as §1

[9] = test system: SCC-3 (B-Cell Non-Hodgkin's Lymphoma); assay: as above
Outline: as §1

[10] = test system: PF-382 (T-Lymphoblastic Leukemia); assay: as above
Outline: as §1

[11] = test system: EMC-BAC-2 (Non-Small Cell Lung Carcinoma); assay: as above
Outline: as §1

[12] = test system: H-EMC-SS (Chondrosarcoma); assay: as above
Outline: as §1

[13] = test system: EBC-1 (Squamous Cell Lung Carcinoma); assay: as above
Outline: as §1

[14] = test system: LOU-NH91 (Squamous Cell Lung Carcinoma); assay: as above
Outline: as §1

[15] = test system: KYSE-50 (Esophageal Squamous Cell Carcinoma); assay: as above
Outline: as §1

[16] = test system: OVISE (Ovarian Carcinoma); assay: as above
Outline: as §1
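For Bliss excess, mean over the matrix in this document: after 72 h of two-drug dosing.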

Row | SMILES | combination Emax [1] | combination Emax [2] | combination Emax (GI-1 (Glioblastoma)) | combination Emax [3] | combination Emax [4] | combination Emax [5] | combination Emax [6] | Bliss excess [7] | Bliss excess [8] | Bliss excess (BT-20 (Breast Carcinoma)) | Bliss excess (NH-12 (Neuroblastoma)) | Bliss excess [9] | Bliss excess [10] | Bliss excess [11] | Bliss excess [12] | Bliss excess [13] | Bliss excess [14] | Bliss excess [15] | Bliss excess [16]
1 | COc1cc2c(cc1OCCCCCOc1cc3c(cc1OC)C(=O)N1C=C(C)C[C@H]1C=N3)N=C[C@@H]1CC(C)=CN1C2=O [SG3199] + O=C(c1cc(Cc2n[nH]c(=O)c3ccccc23)ccc1F)N1CCN(C(=O)C2CC2)CC1 [Olaparib] (first compound max 0.001 µM, 7x7, partner max 10 µM) | 0.112 | 0.122 | 0.175 | 0.107 | 0.0837 | 0.181 | 0.232 | -0.0232 | -0.0371 | -0.0366 | 0.0343 | 0.0586 | 0.0069 | -0.0467 | -0.0812 | -0.014 | -0.0224 | -0.0319 | -0.0431
2 | C[C@@H]1COCCN1c1cc(C2([S@](C)(=N)=O)CC2)nc(-c2ccnc3[nH]ccc23)n1 [AZD6738] + O=C(c1cc(Cc2n[nH]c(=O)c3ccccc23)ccc1F)N1CCN(C(=O)C2CC2)CC1 [Olaparib] (first compound max 10 µM, 7x7, partner max 10 µM) | 0.705 | 0.675 | 0.926 | 0.362 | 0.419 | 0.385 | 0.634 | 0.0361 | -0.009 | 0.0472 | -0.0308 | 0.0103 | -0.0167 | -0.007 | -0.0558 | -0.0153 | 0.0035 | -0.0202 | 0.0393
3 | COc1cccc(OCCCN)c1-c1cc(Nc2cnc(C#N)cn2)n[nH]1 [Prexasertib] + Cc1cc2ncnn2cc1Nc1ncc2c(n1)n(C1CCOCC1)c(=O)n2C [AZD7648] (first compound max 1 µM, 7x7, partner max 10 µM) | 0.716 | 0.803 | 0.987 | 0.36 | 0.458 | 0.39 | 0.595 | 0.0598 | -0.0209 | -0.0536 | -0.0133 | -0.0082 | -0.0131 | -0.019 | -0.021 | -0.0054 | 0.007 | -0.0296 | -0.0333
